Laboratory results from article PMC12592319, “Predicting Food Effect On Oral Drug Absorption For Solubility-Epithelial Membrane Permeation-Limited Cases With Bile Micelle Solubilization” (Pharmaceutical Research, 2025).
In brackets after ≈: the same amount, converted by molar mass. Read-outs that look alike come from different tables or passages of the source.

Key:
[1] = Octanol-water partition/distribution coefficient (logPoct, logDoct); assay type: physicochemical; conditions: calculated from logPoct and pKa using the Henderson-Hasselbalch equation
Description: Table II Physicochemical Properties and Caco-2 Permeability of Model Drugs | column: logDoct,pH 6.5^c

[2] = Equilibrium solubility measurement (shake-flask) in blank FaSSIF, FaSSIF, FeSSIF; assay type: physicochemical; conditions: for Ratio (fed/fasted) Sdissolv: FeSSIF/FaSSIF, corresponds to Fafed/Fafasted predicted by Eq. (18); for solubility at 72 h: thermodynamic from solid, pH 6.5, 37°C, mean ± S.D., N = 3
Protocol: A shake-flask method was used for equilibrium solubility measurement. Each drug (10 mg) was added to the 15 mL test tube. Blank FaSSIF (28.7 mM phosphate buffer, pH 6.5 adjusted by NaOH), FaSSIF (3 mM TC, 0.75 mM EL in blank FaSSIF), or FeSSIF (15 mM TC, 3.75 mM EL in blank FaSSIF) was added. The test tube was placed horizontally in a reciprocal shaker. After shaking for 72 h at 37°C (at 90 rpm, motion width: 2.5 cm), the sample was filtered (hydrophilic PVDF, φ = 4.0 mm, pore size: 0.22 µm, Merck). The first few droplets were discarded to avoid filter adsorption. The concentration of each drug was measured by UV absorbance. […] After measuring the final pH (9615S-10D Standard ToupH electrode (HORIBA Advanced Techno Co., Ltd., Kyoto, Japan)), the residual particles were collected by vacuum filtration and analyzed by powder X-ray diffraction (PXRD) (Supplemental Information Figure S1).

[3] = cited from earlier work
[4] = design: method as in PMID 20307655, PMID 19465123, PMID 17828749, PMID 23994640; conditions: pH 6.5; cited from earlier work
Caco-2 = tested on: Caco-2; design: method as in PMID 9795088, PMID 10767597, PMID 15032311; conditions: cited from earlier work
[5] = clinical AUC ratio fed/fasted, humans; cited from earlier work
[6] = design: method as in PMID 31863733; conditions: previous prediction; cited from earlier work
[7] = μFLUX dissolution-permeation flux experiment; conditions: for Ratio (fed/fasted) CD,final / Ratio (fed/fasted) JμFLUX: FeSSIF/FaSSIF, μFLUX dose 1/10 of the clinical dose; for fraction unbound: pH 6.5, fu; for CD,final: measured after filtration, 1/10 of clinical dose, mean ± S.D., N = 3; for JμFLUX: average of 90 to 120 min (pranlukast 210 to 240 min); for Peff,μFLUX: calculated based on CD,final; for Time after which CD reached a plateau: donor solution; for kdiss: calculated from the initial dissolution rate in μFLUX; for Pep,u,μFLUX: Peff,μFLUX/fu
Protocol: The μFLUX apparatus (pION Inc., MA, USA) (Fig. 2) was used for dissolution-permeation flux experiments. The membrane filter (1.54 cm^2) was coated with 25 μL of a 10% soybean lecithin-decane solution [72]. FaSSIF or FeSSIF (15 mL) was added to the donor chamber. The acceptor sink buffer (volume (VA) = 15 mL) was added to the acceptor chamber. The temperature was maintained at 37°C. The stirring rotation speed was set to 150 rpm. Each drug formulation (1/10 of the clinical dose) was added after being gently crushed by mortar and pestle. The drug concentrations in the donor (CD) and acceptor (CA) solutions were monitored using a UV probe for 2 h, except for pranlukast (4 h) (2 mm (donor) and 20 mm (acceptor) apertures). […] The final drug concentration in the donor chamber (CD, final) was measured after filtration as described above.
The flux value (JμFLUX) was calculated from the slope of the drug concentration–time curve in the acceptor solution in the last 30 min.19 JμFLUX=ΔCA/ΔTVA/SA where SA is the membrane surface area (1.54 cm^2). The effective permeability in μFLUX (Peff, μFLUX) value was calculated from JμFLUX and CD, final.20 Peff,μFLUX=JμFLUX/CD,final

[8] = FaRLS diagnosis by Fa equation and Peff equation (Table S3, dose number); conditions: for Dose number, Fasted / Dose number, Fed: clinical dose; for Dose number, Fasted: Sdissolv in FaSSIF; for Dose number, Fed: Sdissolv in FeSSIF
[9] = pKa measurement (SiriusT3, UV-metric/pH-metric titration); assay type: physicochemical; conditions: acidic pKa; ionic strength 0.168 mol/L, 37°C; read-out: pKa (A)
Protocol: The pKa measurements were performed using a SiriusT3 automatic titrator, with a spectrometric (UV-metric) or titration (pH-metric) method. The UV-metric method used a fiber optic dip probe, a deuterium lamp UV light source, and a photodiode array detector to capture the absorption spectra of a sample solution over the course of three titrations, across the pH range 2.0–12.0. […] Titrations were carried out under a controlled temperature of 37 ± 0.2°C.
SiriusT3 software v2.0 was used to apply principal component analysis to the spectral data to resolve the molar absorptivity spectra of each sample species and determine the psKa values of the compounds in the co-solvent. The pKa values under aqueous conditions were calculated from the co-solvent data using the Yasuda-Shedlovsky extrapolation method.
Additional potentiometric titrations were performed for each drug, which confirmed that no additional non-UV active pKas were present within the titration pH range.

[10] = assumed to be the same as Caco-2 Papp, cited from earlier work
[11] = bile micelles in FaSSIF, FaSSIF, calculated by Eq. (9) (Sdissolv,u/Sdissolv)

Structure (SMILES) | logDoct,pH 6.5 [1] | Ratio (fed/fasted) Sdissolv [2] | logPoct [3] | Caco-2 Papp (Caco-2) | Ratio (fed/fasted) AUCr [5] | Ratio (fed/fasted) CD,final [7] | Ratio (fed/fasted) JμFLUX [7] | fraction unbound [7, 11] | CD,final ([7]; donor FaSSIF pH 6.5) | JμFLUX ([7]; donor FaSSIF) | Peff,μFLUX ([7]; donor FaSSIF) | CD,final ([7]; donor FeSSIF pH 6.5) | JμFLUX ([7]; donor FeSSIF) | Peff,μFLUX ([7]; donor FeSSIF) | Time after which CD reached a plateau [7] | Dose number, Fasted [8] | Dose number, Fed [8] | other results
Cc1ccc(-c2cc(C(F)(F)F)nn2-c2ccc(S(N)(=O)=O)cc2)cc1 [Celecoxib] | 3.5 | 2.2 | 3.5 | 18 [56] 10^–6 cm/s | 1.6 | 1.7 | 1.7 | 0.069 | 37 ± 1 µg/mL | 6.7 ± 0.4 10–^3 μg/cm^2/s | 18 ± 2 10^–5 cm/s | 62 ± 1 µg/mL | 11 ± 1 10–^3 μg/cm^2/s | 18 ± 1 10^–5 cm/s | 20 min | 67 | 25 | Solubility, Blank FaSSIF [4]: 3.2 µg/mL (≈ 8.39 µM); Solubility, FaSSIF [4]: 46.2 µg/mL (≈ 121 µM); Solubility, FeSSIF [4]: 103 µg/mL (≈ 270 µM); Food effect predicted by the GUT framework [6]: 2.3; fu ([7]; FeSSIF, calculated by Eq. (9) (Sdissolv,u/Sdissolv)): 0.031
COc1ccccc1Oc1c(NS(=O)(=O)c2ccc(C(C)(C)C)cc2)nc(-c2ncccn2)nc1OCCO [Bosentan] | 2.2 | 2.1 | 3.8 | 1 [52] 10^–6 cm/s | 1.1 | 1.9 | 0.91 | 0.73 | 49 ± 0 µg/mL | 6.7 ± 0.8 10–^3 μg/cm^2/s | 14 ± 2 10^–5 cm/s | 95 ± 0 µg/mL | 6.1 ± 0.2 10–^3 μg/cm^2/s | 6.4 ± 0.2 10^–5 cm/s | 20 min | 23 | 9 | pKa [9]: 4.87; solubility at 72 h ([2]; FaSSIF, read-out: Solubility, FaSSIF): 41 ± 1 µg/mL (≈ 74.3 µM); solubility at 72 h ([2]; FeSSIF, read-out: Solubility, FeSSIF): 87 ± 1 µg/mL (≈ 158 µM); solubility at 72 h ([2]; blank FaSSIF, read-out: Solubility, Blank FaSSIF): 30 ± 1 µg/mL (≈ 54.4 µM); Pep,u ([10]; Fasted): 1 10^-6 cm/s; Pep,u ([10]; Fed): 1 10^-6 cm/s; kdiss ([7]; Fasted): 0.0004708 s⁻¹; kdiss ([7]; Fed): 0.0007219 s⁻¹; fraction unbound ([7]; bile micelles in FeSSIF, FeSSIF, calculated by Eq. (9) (Sdissolv,u/Sdissolv)): 0.34; Pep,u,μFLUX ([7]; donor FaSSIF): 18 ± 2 10^–5 cm/s; Pep,u,μFLUX ([7]; donor FeSSIF): 19 ± 1 10^–5 cm/s; Dn ([8]; Fasted): 5.9; Do ([8]; Fasted): 23; Pep ([8]; Fasted): 0.73 10^-6 cm/s; Pep' ([8]; Fasted): 7.3 10^-6 cm/s; Dn ([8]; Fed): 9.1; Do ([8]; Fed): 9.2; Pep ([8]; Fed): 0.34 10^-6 cm/s; Pep' ([8]; Fed): 3.4 10^-6 cm/s; fraction unbound ([8]; human, bile micelles in FaSSIF, pH 6.5): 0.73
